IC50 data for eleven molecules are collected here from ChEMBL document CHEMBL1130471, “RES-701-1/endothelin-1 hybrid peptide having a potent binding activity for type B receptor” (Bioorg Med Chem Lett, 1997).

For test [1], the target named is T1, Endothelin-1 receptor (Bos taurus, UniProt P21450).
T1 sequence (P21450 whole entry): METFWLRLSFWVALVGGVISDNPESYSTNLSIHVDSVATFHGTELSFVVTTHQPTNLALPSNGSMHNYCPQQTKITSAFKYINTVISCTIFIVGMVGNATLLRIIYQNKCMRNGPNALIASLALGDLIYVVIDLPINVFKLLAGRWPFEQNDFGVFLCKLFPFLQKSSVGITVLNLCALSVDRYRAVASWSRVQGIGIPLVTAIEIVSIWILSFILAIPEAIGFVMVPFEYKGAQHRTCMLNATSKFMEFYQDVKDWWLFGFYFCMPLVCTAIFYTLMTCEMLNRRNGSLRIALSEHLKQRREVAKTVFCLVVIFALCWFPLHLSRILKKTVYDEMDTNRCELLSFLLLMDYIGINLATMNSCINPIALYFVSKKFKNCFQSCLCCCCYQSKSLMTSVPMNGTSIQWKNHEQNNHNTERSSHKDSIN
Nature of the test: Binding activity to ET-A receptor on bovine lung membrane was determined. Type of test: tissue-based.

For test [2], the target named is T2, Endothelin receptor type B (Bos taurus, UniProt P28088).
T2 sequence (P28088 whole entry): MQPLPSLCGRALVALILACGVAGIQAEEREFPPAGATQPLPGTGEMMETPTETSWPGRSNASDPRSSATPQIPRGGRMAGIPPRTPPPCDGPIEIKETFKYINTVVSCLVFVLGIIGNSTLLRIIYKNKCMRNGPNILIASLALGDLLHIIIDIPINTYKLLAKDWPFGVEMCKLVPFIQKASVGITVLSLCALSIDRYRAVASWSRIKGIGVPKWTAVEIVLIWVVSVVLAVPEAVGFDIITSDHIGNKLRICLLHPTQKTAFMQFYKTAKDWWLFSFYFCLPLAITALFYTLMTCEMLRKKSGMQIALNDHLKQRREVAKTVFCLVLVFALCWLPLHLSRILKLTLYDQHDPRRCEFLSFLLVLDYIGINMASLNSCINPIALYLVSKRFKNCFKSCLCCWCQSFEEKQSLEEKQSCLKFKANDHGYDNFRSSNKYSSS
Description: Binding activity to ET-B receptor on bovine cerebellum membrane. Type of test: tissue-based.

As to `CC[C@H](C)[C@H](NC(=O)[C@H](CC(=O)O)NC(=O)[C@H](CC(C)C)NC(=O)[C@H](Cc1c[nH]cn1)NC(=O)[C@H](C)NC(=O)[C@H](Cc1ccccc1)NC(=O)[C@H](Cc1ccc(O)cc1)NC(=O)[C@@H](NC(=O)[C@H](Cc1c[nH]c2ccccc12)NC(=O)[C@@H]1CC(=O)NCC(=O)N[C@@H](CC(N)=O)C(=O)N[C@@H](Cc2c[nH]c3ccccc23)C(=O)N[C@@H](Cc2c[nH]cn2)C(=O)NCC(=O)N[C@@H]([C@@H](C)O)C(=O)N[C@@H](C)C(=O)N2CCC[C@H]2C(=O)N1)C(C)C)C(=O)N[C@H](C(=O)N[C@@H](Cc1c[nH]c2ccccc12)C(=O)O)[C@@H](C)CC`, the IC50 (commonly the concentration that inhibits the measured activity by half) in test [1] is over 0.1 µM.

Regarding `C[C@@H]1NC(=O)[C@H]([C@@H](C)O)NC(=O)CNC(=O)[C@H](Cc2c[nH]cn2)NC(=O)[C@H](Cc2c[nH]c3ccccc23)NC(=O)[C@H](CC(N)=O)NC(=O)CNC(=O)C[C@@H](C(=O)N[C@@H](Cc2c[nH]c3ccccc23)C(=O)N[C@@H](Cc2ccccc2)C(=O)N[C@@H](Cc2ccccc2)C(=O)N[C@@H](CC(N)=O)C(=O)N[C@@H](Cc2ccc(O)cc2)C(=O)N[C@@H](Cc2ccc(O)cc2)C(=O)N[C@@H](Cc2c[nH]c3ccccc23)C(=O)O)NC(=O)[C@@H]2CCCN2C1=O`, the concentration for half-maximal inhibition (IC50) in test [1] was over 5 µM.

Molecule `CC[C@H](C)[C@H](NC(=O)[C@@H](NC(=O)[C@H](CC(=O)O)NC(=O)[C@H](CCC(N)=O)NC(=O)[C@H](Cc1c[nH]cn1)NC(=O)[C@H](C)NC(=O)[C@H](Cc1ccccc1)NC(=O)[C@H](Cc1ccc(O)cc1)NC(=O)[C@H](CC(C)C)NC(=O)[C@H](Cc1c[nH]c2ccccc12)NC(=O)[C@@H]1CC(=O)NCC(=O)N[C@@H](CC(N)=O)C(=O)N[C@@H](Cc2c[nH]c3ccccc23)C(=O)N[C@@H](Cc2c[nH]cn2)C(=O)NCC(=O)N[C@@H]([C@@H](C)O)C(=O)N[C@@H](C)C(=O)N2CCC[C@H]2C(=O)N1)C(C)C)C(=O)N[C@@H](Cc1c[nH]c2ccccc12)C(=O)O` came in with a half-inhibitory concentration (IC50) in test [1] of over 0.1 µM.

As for `CC[C@H](C)[C@H](NC(=O)[C@H](CC(=O)O)NC(=O)[C@H](CC(C)C)NC(=O)[C@H](Cc1c[nH]cn1)NC(=O)[C@H](C)NC(=O)[C@H](Cc1ccc(O)cc1)NC(=O)[C@H](Cc1ccc(O)cc1)NC(=O)[C@@H](NC(=O)[C@H](Cc1c[nH]c2ccccc12)NC(=O)[C@@H]1CC(=O)NCC(=O)N[C@@H](CC(N)=O)C(=O)N[C@@H](Cc2c[nH]c3ccccc23)C(=O)N[C@@H](Cc2c[nH]cn2)C(=O)NCC(=O)N[C@@H]([C@@H](C)O)C(=O)N[C@@H](C)C(=O)N2CCC[C@H]2C(=O)N1)C(C)C)C(=O)N[C@H](C(=O)N[C@@H](Cc1c[nH]c2ccccc12)C(=O)O)[C@@H](C)CC`, the half-inhibitory concentration (IC50) in test [1] was over 0.1 µM.

Turning to `C[C@@H]1NC(=O)[C@H]([C@@H](C)O)NC(=O)CNC(=O)[C@H](Cc2c[nH]cn2)NC(=O)[C@H](Cc2c[nH]c3ccccc23)NC(=O)[C@H](CC(N)=O)NC(=O)CNC(=O)[C@H](Cc2c[nH]c3ccccc23)NC(=O)[C@H](Cc2ccc(O)cc2)NC(=O)[C@H](Cc2ccc(O)cc2)NC(=O)[C@H](CC(N)=O)NC(=O)[C@H](Cc2ccccc2)NC(=O)[C@H](Cc2ccccc2)NC(=O)[C@H](Cc2c[nH]c3ccccc23)NC(=O)[C@H](CC(=O)O)NC(=O)[C@@H]2CCCN2C1=O`, the IC50 in test [2] is over 5 µM.

As for `C[C@H](NC(=O)[C@@H](NC(=O)CNC(=O)[C@H](Cc1c[nH]cn1)NC(=O)[C@H](Cc1c[nH]c2ccccc12)NC(=O)[C@H](CC(N)=O)NC(=O)CN)[C@@H](C)O)C(=O)N1CCC[C@H]1C(=O)N[C@@H](CC(=O)O)C(=O)N[C@@H](Cc1c[nH]c2ccccc12)C(=O)N[C@@H](Cc1ccccc1)C(=O)N[C@@H](Cc1ccccc1)C(=O)N[C@@H](CC(N)=O)C(=O)N[C@@H](Cc1ccc(O)cc1)C(=O)N[C@@H](Cc1ccc(O)cc1)C(=O)N[C@@H](Cc1c[nH]c2ccccc12)C(=O)O`, the half-inhibitory concentration (IC50) in test [2] was determined as 5 µM.

In test [2], `CC[C@H](C)[C@H](NC(=O)[C@H](CC(=O)O)NC(=O)[C@H](CC(C)C)NC(=O)[C@H](Cc1cnc[nH]1)NC(=O)[C@@H]1CSSC[C@H](N)C(=O)N[C@@H](CO)C(=O)N[C@H]2CSSC[C@H](NC(=O)[C@H](CCC(=O)O)NC(=O)[C@H](CCCCN)NC(=O)[C@H](CC(=O)O)NC(=O)[C@H](CCSC)NC(=O)[C@H](CC(C)C)NC(=O)[C@H](CO)NC(=O)[C@H](CO)NC2=O)C(=O)N[C@@H](C(C)C)C(=O)N[C@@H](Cc2ccc(O)cc2)C(=O)N[C@@H](Cc2ccccc2)C(=O)N1)C(=O)N[C@H](C(=O)N[C@@H](Cc1c[nH]c2ccccc12)C(=O)O)[C@@H](C)CC` [ENDOTHELIN] registered a concentration for half-maximal inhibition (IC50) of 1 µM.

For H-LYFCHQDVIW-OH, in test [2], the concentration for half-maximal inhibition (IC50) amounted to 3 µM.

For the molecule H-VYFSHLDIIW-OH, the IC50 in test [2] is 1 µM.

For H-VYYCHLDIIW-OH, in test [2], the IC50 was found to be 3 µM.

The molecule H-WFFNYYW-OH showed an IC50 in test [2] of 3 µM.
